In patent publication US20100184810A1, “METHODS AND COMPOSITIONS RELATED TO RIBOSWITCHES THAT CONTROL ALTERNATIVE SPLICING” (Yale University, priority 2007, published 2010):
Read-outs that look alike come from different tables or passages of the source.

Columns and labels:
[1] = tested on: thiA mRNA carrying a TPP aptamer; details: thiamine supplementation of growth medium; cited from earlier work
THI4 precursor mRNA = details: 30 μM thiamine in growth medium, 24 h
Procedure: (§1) RNA Analyses. RT-PCR analyses were conducted using RNA from untransformed N. crassa inoculated into 100 ml of Vogel's minimal medium supplemented with 0.5 mg ml-1 L-histidine. Cultures were grown at 30° C. with shaking at 150 rpm for 24 h either in the absence or presence of supplemented 30 μM thiamine. The cDNA was used as a template for PCR amplification of the 5′ regions of the three genes using primers and methods as described in Supplementary Information. All splicing products were confirmed by cloning and sequencing.
(§2) Reverse transcriptase-polymerase chain reaction (RT-PCR) analyses. Total RNA was isolated from mycelia using TRIzol® LS reagent (Invitrogen) according to the manufacturer's directions. 5 μg of total RNA was treated with RNase free DNase I (Promega) for 30 min at 37° C. cDNA was generated by reverse transcription with a polyT primer for 1 hr at 42° C. using SuperScript™ II Reverse Transcriptase (Invitrogen) according to the manufacturer's directions. To exclude the possibility of amplification products originating from contamination with genomic DNA, control reactions using RNA preparations before RT were performed and, for NMT1, a reverse primer spanning an exon-exon border in the coding region was used.
as §2, with “used. […] For sequence identification all amplification products were cloned and confirmed by sequencing several independent clones.” for “used.”
(§3) A specific primer combination was used for every gene with one primer binding to the annotated 5′ end of the transcript and a second primer binding immediately downstream of the riboswitch-containing intron. For the NMT1 gene, the primers used for PCR were DNA37 and DNA38 (FIG. 14), corresponding to the annotated 5′ end of the NMT1 mRNA and a region approximately 50 nucleotides downstream of the TPP riboswitch-containing intron, respectively. For the THI4 (CyPBP37) gene, the primers used were DNA39 and DNA40, corresponding to the 5′ end of the mRNA and a region approximately 125 nucleotides downstream of the TPP riboswitch-containing intron, respectively.

NMT1 precursor mRNA = tested on: NMT1 precursor mRNA
Procedure: as §1, §2
as §2, with “used. […] For sequence identification all amplification products were cloned and confirmed by sequencing several independent clones.” for “used.”
as §3

[2] = tested on: TPP riboswitch in the N. crassa NCU01977.1 mRNA; details: 30 μM thiamine, 24 h
Procedure: LUC activity was normalized to the value measured at t=0 h.
Luciferase reporter gene assays. Mycelia from N. crassa transformed with LUC reporter constructs were isolated by filtration and approximately 100 mg of tissue was ground to a fine powder. After addition of 100 gl 1× Passive Lysis Buffer (Promega), the samples were vigorously mixed and incubated on ice for 30 min followed by centrifugation for 15 minutes at 13,000 g. Luciferase activity was determined for the resulting supernatant using the Luciferase Assay System (Promega) and a plate-reading luminometer (Wallac). Luciferase activity was normalized over total protein concentration of the extract as determined by Bradford Protein Assay (BioRad) and finally expressed relative to a reference construct.
(§4) Luciferase reporter gene assays. Mycelia from N. crassa transformed with LUC reporter constructs were isolated by filtration and approximately 100 mg of tissue was ground to a fine powder. […] Luciferase activity was determined for the resulting supernatant using the Luciferase Assay System (Promega) and a plate-reading luminometer (Wallac). Luciferase activity was normalized over total protein concentration of the extract as determined by Bradford Protein Assay (BioRad) and finally expressed relative to a reference construct.

[3] = tested on: FREQUENCY (FRQ) transcripts; details: 30 μM thiamine in minimal medium
Procedure: as §2
Reverse transcriptase-polymerase chain reaction (RT-PCR) analyses. Total RNA was isolated from mycelia using TRIzol® LS reagent (Invitrogen) according to the manufacturer's directions. 5 μg of total RNA was treated with RNase free DNase I (Promega) for 30 min at 37° C. cDNA was generated by reverse transcription with a polyT primer for 1 hr at 42° C. using SuperScript™ II Reverse Transcriptase (Invitrogen) according to the manufacturer's directions. […]

NMT1 riboswitch aptamer = assay: In-line probing of NMT1 RNA constructs (TPP binding); set-up: species or system N. crassa
Procedure: In-line probing of RNA constructs. 5′ 32P-labeled RNAs were incubated at 23° C. for 40 hours in 50 mM Tris-HCl (pH 8.3 at 25° C.), 20 mM MgCl2 and 100 mM KCl in the presence or absence of TPP as defined. Cleavage products were separated by denaturing 10% PAGE, visualized by PhosphorImager (GE Healthcare), and quantified using ImageQuant software. KD values were determined by plotting the normalized fraction of RNA cleaved versus the logarithm of ligand concentration used. […] The results for in-line probing of 197 NMT1 and 115 NMT1 are depicted in FIG. 8 and FIG. 9, the results for 261 NMT1 are depicted in FIG. 10 and the results for 273 NMT1 are depicted in FIG. 11. Alternative base pairing similar to that being examined in the 273 NMT1 construct is observed in other fungal TPP riboswitches located in NMT1 mRNAs (FIG. 12).

[4] = 30 μM thiamine added at t=0 to culture grown in thiamine-free medium

Procedure for NMT1 TPP riboswitch: Reporter Gene Assays. Transformation of N. crassa was conducted using electroporation of freshly suspended macroconidia and insertion of the target gene was verified by PCR with insert specific primers from genomic DNA. Transcription of luciferase reporter constructs was constitutively driven by the N. crassa beta-tubulin (BTUB) promoter inserted upstream of the NMT1 5′ UTR. […] Samples were isolated and assayed for luciferase activity as described below.
as §4
Luciferase reporter gene assays. […] Luciferase activity was determined for the resulting supernatant using the Luciferase Assay System (Promega) and a plate-reading luminometer (Wallac). Luciferase activity was normalized over total protein concentration of the extract as determined by Bradford Protein Assay (BioRad) and finally expressed relative to a reference construct.

Row | Kd (NMT1 riboswitch aptamer; both constructs (197 NMT1 and 115 NMT1), in-line probing, 23° C., 40 hours, 20 mM MgCl2, read-out: apparent dissociation constant (KD)) | structural modulation of nucleotides at the branch site (NMT1 riboswitch aptamer; in-line probing of 261 NMT1 RNA, 10 μM TPP) | structural modulation at the second 5′ splice site (NMT1 riboswitch aptamer; in-line probing of 273 NMT1 RNA, 10 μM TPP) | SMILES | thiA gene expression [1] | effect on splicing of THI4 precursor mRNA (THI4 precursor mRNA) | NMT1 transcript types within four hours after thiamine supplementation (NMT1 precursor mRNA; [4]) | NMT1 transcript types within the first hour after thiamine supplementation (NMT1 precursor mRNA; [4]) | effect on splicing of NMT1 precursor mRNA (NMT1 precursor mRNA; 30 μM thiamine in growth medium, 24 h) | LUC expression, NCU01977.1 reporter fusion construct [2] | effect on splicing of an RNA that does not carry the TPP riboswitch (FRQ) [3] | effect on splicing of an RNA that does not carry the TPP riboswitch (FRQ) ([3]; listed as Thiamine) | LUC expression, constructs I-2R and I-3R (TPP riboswitch absent) (NMT1 TPP riboswitch; 30 μM thiamine in the medium) | LUC reporter expression, wild-type (WT) NMT1 construct (NMT1 TPP riboswitch; grown overnight in medium supplemented with 30 μM thiamine)
1 |  |  |  | Cc1ncc(C[n+]2csc(CCO)c2C)c(N)n1 [thiamine] | reduced gene expression | causes alternative splicing | I-3 is almost completely replaced by I-2 and I-1 | the splicing product I-2 and the unspliced NMT1 precursor RNA I-1 appear | causes alternative splicing | an increase in LUC expression | do not change in number relative to each other | does not affect splicing | unchanged | Substantial repression
2 | ~300 pM | more structured | more flexible structure | Cc1ncc(C[n+]2csc(CCO[P@](=O)(O)OP(=O)(O)O)c2C)c(N)n1 [TPP, thiamine pyrophosphate] |  |  |  |  |  |  |  |  |  | 
